From patent publication US9527889B2, “RFamide-related peptides and methods thereof” (THE REGENTS OF THE UNIVERSITY OF MICHIGAN, priority 2010, dated 2016)
Read-outs that look alike come from different tables or passages of the source. Non-standard residues stand in square brackets, D forms with d. Residues, ends and D or L forms follow the SMILES beside them. No end group written: not given here. *: point of attachment. Bpa = N[C@@H](Cc1ccc(C(=O)c2ccccc2)cc1)C(=O)O; Myristoyl = CCCCCCCCCCCCCC(=O)*

How the values were obtained:
[1] = test system: D. melanogaster heart; assay type: in vivo, Drosophila melanogaster; settings: for heart rate, % of the basal contraction rate: within 1 minute; for EC50: in vivo, maximal effect 1 minute after microinjection, read-out: best-fit EC50, decrease of heart rate; for effect on fly heart rate / contractility (in words): DMS analogs
Method: D. melanogaster Oregon R wild-type strain flies were maintained on cornmeal molasses media at 24° C. under a 12 hour light/dark cycle. The animals selected for analysis were larvae, prepupae, or adults; both females and males were analyzed and no difference in response was observed. An animal was positioned onto double-stick tape adhered to a microscope stage and heart rate was monitored for 2 minutes before and 10 minutes after saline (control) or peptide was delivered as previously described (Nichols, R. Et al. (1999), Zornik, E. et al. (1999)). A drawn-out micropipette was used to deliver saline or peptide (40 ηl) into the hemolymph (blood) at a site anterior to the brain to avoid tissue damage to the central nervous system and dorsal vessel (aorta and heart). Each animal received only one microinjection of saline or peptide. In some cases, recordings were extended up to 1 hour to establish the return to baseline. Data were averaged from several animals (n≧10) and reported relative to the basal heart rate.
The influence of DMS (Dromyosuppressin peptide; […]amide—SEQ ID NO: 1) on in vivo heart rate in D. melanogaster was compared to physiological saline to evaluate dose-dependent effects of myosuppressin in cardiac function in a model amenable to molecular genetics. […] The dose-dependent effects of dromyosuppressin reported were evaluated in pupae because the animals are immobile and, thus, this developmental stage is the easiest to observe and record heart contractions. The effects of DMS were measured over a range of ten-fold concentrations from 10^−6 M to 10^−11 M and compared to the influence of physiological saline (mean±SEM; 91±3% basal contraction rate at 1 minute; n=18). […] Significant reductions in heart rate were detected in response to DMS concentrations of 10^−9 M and higher, and the peak responses were observed within 1 minute of microinjection of the peptide. The DMS-induced effects typically were observed over 2-3 minutes, and were reversible, returning to approximately basal contraction rate levels in about 5 minutes in response to 10^−8 M and 10^−9 M. At the highest concentrations tested, 10^−6 M and 10^−7 M, DMS decreased heart rate to 25±11% (n=14) and 25±7% (n=16), respectively, within 1 minute. The DMS-induced effects were sustained for 3-5 minutes before they returned to approximately basal contraction rate levels within 30 minutes.

[2] = test system: Protophormia terraenovae; assay: Cardiac arrest in intact blowfly (electrocardiograms); assay type: in vivo
Method: In order to determine the effect of DMS on cardiac arrest in a larger invertebrate various concentrations of DMS were applied to intact Protophormia terraenovae, a blowfly, and electrocardiograms were recorded continuously [Angioy et al. 2007]. […] Signal resumed in animals; the recovery time shortened at lower DMS concentrations.

[3] = test system: isolated adult rat cardiac myocytes; assay type: cell-based; settings: for ability to bind and affect myocyte contractile function: 10^−8M, individually administered; for % Change baseline SL / % Change dep v (shortening rate) / % Change peak h (shortening amplitude) / % Change ret v (re-lengthening rate): 10^−8 M; for character relative to hRFRP-1 on myocyte contractile function (agonist, antagonist, reverse agonist; in words): peptides at 10^−8M or 10^−7M, peak shortening, departure and return velocity
From the text: Adult rat and rabbit ventricular cardiac myocytes were isolated as previously described (Westfall, M. V. Et al. (1997), Westfall, M. V. and Borton, A. R. (2003)). Hearts from Sprague-Dawley rats and New Zealand white rabbits were perfused and enzymatically digested to isolate myocytes; the protocol was approved by The University of Michigan University Committee on Use and Care of Animals (UCUCA) in accordance with university and federal regulatory guidelines. Aliquots of isolated ventricular myocytes were plated on laminin-coated glass coverslips in serum-containing Dulbecco's Modified Eagle Media (Invitrogen, CA, US) supplemented with 5% fetal bovine serum, and 50 U/ml penicillin and 50 μg/ml streptomycin (pen/strep; Sigma-Aldrich, MO, US). Two hours later, media was replaced with serum-free M199 (Invitrogen) supplemented with 1.8 mM Ca^2+, 10 mM HEPES, 10 mM glutathione, and pen/strep. Rat myocytes were transferred to a stimulation chamber and electrically paced the day after isolation (Zornik, E. Et al. (1999), Westfall, M. V. Et al. (1997)). Media was changed daily for all myocyte preparations.
Sarcomere shortening was detected using a video-based detection system (IonOptix, MA, USA) as described earlier (Westfall, M. V. and Borton, A. R. (2003)). Rat myocytes were paced at 0.2 Hz and rabbit myocytes were paced at 0.5 Hz or 1.0 Hz for these studies. Recordings were made prior to application of each peptide concentration, the protein kinase C (PKC) inhibitor bisindolylmaleimide-1, (bis-1; CalBiochem/EMD, NJ, US), or media only (control, C) and at 1, 3, 5, 10 and 15 minutes after application of peptide, bis-1, or media. Signal averaged data were analyzed to determine resting sarcomere length, shortening amplitude (peak shortening), shortening rate (departure velocity), and re-lengthening rate (return velocity), as previously described (Westfall, M. V. Et al. (1997), Westfall, M. V. and Borton, A. R. (2003)), in 7-20 myocytes from 3-4 rats for each peptide concentration, bis-1, and media.

CC(C)C[C@H](NC(=O)[C@H](Cc1ccccc1)NC(=O)[C@@H](NC(=O)[C@H](Cc1c[nH]cn1)NC(=O)[C@H](CC(=O)O)NC(=O)[C@@H](NC(=O)[C@H](CC(=O)O)NC(=O)[C@@H](N)[C@@H](C)O)C(C)C)C(C)C)C(=O)N[C@@H](CCCNC(=N)N)C(=O)N[C@@H](Cc1ccccc1)C(N)=O [DMS] (H-TDVDHVFLRF-NH2; N-terminus assumed)
time effects were sustained ([1]; 10^−6 M and 10^−7 M): 3 to 5 min
time to return to approximately basal contraction rate ([1]; 10^−6 M and 10^−7 M): ≤ 30 min
heart rate, % of the basal contraction rate ([1]; 10^−6 M, pupae): 25±11%
heart rate, % of the basal contraction rate ([1]; 10^−7 M, pupae): 25±7%
time to return to approximately basal contraction rate ([1]; 10^−8 M and 10^−9 M): about 5 minutes
heart rate, % of the basal contraction rate ([1]; 10^−10 M, pupae): 77±4%
time to maximal effect on heart rate ([1]; after microinjection, pupae): ≤ 1 min
EC50 [1]: 3 nM
responses on heart contractions in larvae and in adults ([1]; similar range of concentrations, larvae and adults): less robust but significant responses
time over which effects were observed ([1]; typical, 10^−8 M and 10^−9 M): 2 to 3 min
animals with cardiac arrest ([2]; 10 μM, 1 μM, and 0.1 ηM, n=10 at each concentration): 100%
animals with cardiac arrest ([2]; lower concentrations): ~50%

CC(C)C[C@H](NC(=O)[C@H](Cc1ccccc1)NC(=O)[C@@H](NC(=O)[C@H](Cc1c[nH]cn1)NC(=O)[C@H](CC(=O)O)NC(=O)[C@@H](NC(=O)[C@H](Cc1ccc(C(=O)c2ccccc2)cc1)NC(=O)[C@@H](NC(=O)[C@@H](N)Cc1ccc(O)cc1)[C@@H](C)O)C(C)C)C(C)C)C(=O)N[C@@H](CCCNC(=N)N)C(=O)N[C@@H](Cc1ccccc1)C(N)=O [Y-[Bpa2]DMS] (H-YT[Bpa]VDHVFLRF-NH2; N-terminus assumed)
EC50 [1]: 0.13 nM

CN(C)CCCn1cc(C2=C(c3c[nH]c4ccccc34)C(=O)NC2=O)c2ccccc21 [bis-1, bisindolylmaleimide-1, reference compound]
effect of inhibitor on the influence of 10^−8 M hRFRP-1 on shortening amplitude, shortening and re-lengthening rates ([3]; 500 ηM inhibitor, 15 minutes): largely blocked

AFLRFamide (AFLRF-NH2)
effect on fly heart rate / contractility (in words) [1]: capable of not only binding, but exerting an effect on cardiac contractility

FANLPLRFamide (FANLPLRF-NH2)
ability to bind and affect myocyte contractile function [3]: in a manner similar to the parent peptide hRFRP-1

FLRFamide (FLRF-NH2)
effect on fly heart rate / contractility (in words) [1]: DMS antagonist

KGGFSFRFamide (KGGFSFRF-NH2; listed as Rattus norvegicus) [26RFa(19-26), reference compound]
% Change baseline SL ([3]; 15 minutes): −0.4 ± 0.2%
% Change dep v (shortening rate) ([3]; 15 minutes): −5.3 ± 5.6%
% Change peak h (shortening amplitude) ([3]; 15 minutes): −7.7 ± 4.8%
% Change ret v (re-lengthening rate) ([3]; 15 minutes): −8.1 ± 5.0%

LAEELSSYSRRKGGFSFRFamide (LAEELSSYSRRKGGFSFRF-NH2) [26RFa(8-26), reference compound]
% Change baseline SL ([3]; 15 minutes): −0.04 ± 0.1%
% Change dep v (shortening rate) ([3]; 15 minutes): −6.0 ± 4.4%
% Change peak h (shortening amplitude) ([3]; 15 minutes): −4.3 ± 5.7%
% Change ret v (re-lengthening rate) ([3]; 15 minutes): −7.3 ± 6.3%

LPLRFamide (LPLRF-NH2)
ability to bind and affect myocyte contractile function [3]: in a manner similar to the parent peptide hRFRP-1

MP(Bpa)SFANLPLRFamide (MP[Bpa]SFANLPLRF-NH2; N-terminus assumed; SMILES CSCC[C@H](N)C(=O)N1CCC[C@H]1C(=O)N[C@@H](Cc1ccc(C(=O)c2ccccc2)cc1)C(=O)N[C@@H](CO)C(=O)N[C@@H](Cc1ccccc1)C(=O)N[C@@H](C)C(=O)N[C@@H](CC(N)=O)C(=O)N[C@@H](CC(C)C)C(=O)N1CCC[C@H]1C(=O)N[C@@H](CC(C)C)C(=O)N[C@@H](CCCNC(=N)N)C(=O)N[C@@H](Cc1ccccc1)C(N)=O) [[Bpa3]hRFRP-1]
character relative to hRFRP-1 on myocyte contractile function (agonist, antagonist, reverse agonist; in words) [3]: increases cardiac function

PHSFANLPLRFamide (PHSFANLPLRF-NH2)
character relative to hRFRP-1 on myocyte contractile function (agonist, antagonist, reverse agonist; in words) [3]: super-agonist

PKI-(Myr-14-22)-amide (Myristoyl-SGRTGRRNA-NH2; SMILES CCCCCCCCCCCCCC(=O)N[C@@H](CO)C(=O)NCC(=O)N[C@@H](CCCNC(=N)N)C(=O)N[C@H](C(=O)NCC(=O)N[C@@H](CCCNC(=N)N)C(=O)N[C@@H](CCCNC(=N)N)C(=O)N[C@@H](CC(N)=O)C(=O)N[C@@H](C)C(N)=O)[C@@H](C)O; UniProt P61925 14-22, looked up, fragment) [reference compound]
effect of inhibitor on the activity of hRFRP-1 ([3]; isolated ventricular cardiac myocytes): modifies the activity of hRFRP-1

PQRFamide (PQRF-NH2)
ability to bind and affect myocyte contractile function [3]: in a manner similar to the parent peptide hRFRP-1

TDVDAVFLRFamide (TDVDAVFLRF-NH2) [[A5]DMS]
effect on fly heart rate / contractility (in words) [1]: increase heart rate

TDVDHAFLRFamide (TDVDHAFLRF-NH2) [[A6]DMS]
effect on fly heart rate / contractility (in words) [1]: increase heart rate

VDHVFLRFamide (VDHVFLRF-NH2)
effect on fly heart rate / contractility (in words) [1]: activity similar to the parent DMS peptide

VFLRFamide (VFLRF-NH2)
effect on fly heart rate / contractility (in words) [1]: capable of not only binding, but exerting an effect on cardiac contractility

VPHSAANLPLRFamide (VPHSAANLPLRF-NH2; listed as Rattus norvegicus) [rRFRP-1]
% Change baseline SL ([3]; 15 minutes): −0.3 ± 0.1%
% Change dep v (shortening rate) ([3]; 15 minutes): −22.1±6.0%
% Change peak h (shortening amplitude) ([3]; 15 minutes): −17.7±4.3%
% Change ret v (re-lengthening rate) ([3]; 15 minutes): −25.5±3.9%

YMPIISFANLPLRF-NH2 [Y-hRFRP-1]
character relative to hRFRP-1 on myocyte contractile function (agonist, antagonist, reverse agonist; in words) [3]: hRFRP-1 agonist

[A9]hRFRP-1: parent hRFRP-1 peptide where the 9th amino acid is replaced by an alanyl residue (MPHSFANLALRF-NH2; listed as Homo sapiens)
peak shortening (peak h) compared with unsubstituted hRFRP-1 ([3]; 10^−8M alanine analogs): significantly different
relaxation (ret v) compared with unsubstituted hRFRP-1 ([3]; 10^−8M alanine analogs): significantly different
